Measured values reported in patent publication US7037500B1, “Method for using phagocytic particles and ATP receptors to deliver antigens to MHC class I receptors to induce immunity against microbial pathogens or tumors or to suppress immunity” (The Trustees of Columbia University in the City of New York, priority 2000, dated 2006).

Experiments:
[1] = molecular target: T1, P2X7 receptors of J774 cells (Mus musculus, UniProt Q9Z1M0); settings: previous study (8); cited from earlier work
T1 construct: P2X7 receptors of J774 cells; endogenous in cells; host or cells: J774 macrophage-like cells
T1 sequence (Q9Z1M0 1-595): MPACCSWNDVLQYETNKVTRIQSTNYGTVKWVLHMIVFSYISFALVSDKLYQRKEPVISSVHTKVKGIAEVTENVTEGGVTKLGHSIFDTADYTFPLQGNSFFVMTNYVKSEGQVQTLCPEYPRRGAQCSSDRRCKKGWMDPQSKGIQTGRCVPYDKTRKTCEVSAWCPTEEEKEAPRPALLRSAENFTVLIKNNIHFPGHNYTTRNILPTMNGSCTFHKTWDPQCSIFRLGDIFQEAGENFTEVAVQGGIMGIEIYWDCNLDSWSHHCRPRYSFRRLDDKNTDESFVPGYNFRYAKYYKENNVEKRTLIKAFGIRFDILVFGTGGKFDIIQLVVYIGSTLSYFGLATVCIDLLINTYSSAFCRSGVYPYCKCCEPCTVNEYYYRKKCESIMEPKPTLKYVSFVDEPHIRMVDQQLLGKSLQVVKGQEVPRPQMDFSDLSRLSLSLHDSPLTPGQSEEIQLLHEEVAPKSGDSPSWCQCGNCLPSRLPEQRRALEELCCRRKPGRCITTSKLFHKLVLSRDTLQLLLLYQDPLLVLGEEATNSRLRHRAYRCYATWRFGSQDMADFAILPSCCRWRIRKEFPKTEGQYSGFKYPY

[2] = tested on: Mouse bone marrow derived dendritic cells / isogenic spleen derived CD8 lymphocytes; test: CTL assay, 3H-thymidine uptake of CD8 lymphocytes co-incubated with treated dendritic cells; assay type: cell-based
Protocol: It is shown herein that if a peptide such as ovalbumin is loaded into the IgG opsonized red blood cell resealed ghosts and then incubated with mouse bone derived dendritic cells—the dendritic cells will present class I MHC and induce cytotoxic CD8 lymphocytes as measured by the capacity of these lymphocytes to proliferate in response to co-incubation of the dendritic cells with CD8 lymphocytes. (Table 1)
Table 1: Mouse Bone marrow derived dendritic cells prepared as described in FIG. 3 were incubated with the appropriate isogenic spleen derived CD8 lymphocytes for several hours and then the CTL response was assayed by radiolabeled thymidine incorporation into the lymphocytes indicating a proliferative response mediated via class I MHC.

P2X7 receptors = molecular target: T2, P2X7 receptors (Mus musculus, UniProt Q9Z1M0); settings: cited from earlier work
T2 sequence (Q9Z1M0 1-595): T1 sequence (Q9Z1M0 1-595)

For `Cc1ccc(N(CC(=O)O)CC(=O)O)c(OCCOc2cc3cc(-c4ncc(C(=O)O)o4)oc3cc2N(CC(=O)O)CC(=O)O)c1` [fura 2], the “penetration of plasma membrane pores formed by ATP4-activated P2X7 receptors” value [1] is listed as “penetrate plasma membrane pores”.

In the case of “Soluble Ova peptide: soluble ovalbumin peptide (amino acids 257–264) (ESIINFEK; UniProt P01012 257-264, looked up, fragment)”, the “CTL Assay- 3H-thymidine uptake (proliferation assay-cpm)” value ([2]; dendritic cells treated with 100 ng/ml) is reported as 90,000 cpm.

In the case of `Nc1ncnc2c1ncn2[C@@H]1O[C@H](COP(=O)(O)OP(=O)(O)OP(=O)(O)O)[C@@H](O)[C@H]1O` [ATP^4−], the “[ATP4-] needed to induce pore formation by P2X7 receptors” value (P2X7 receptors) is given as greater than 130 µM.

B1: Soluble Ova protein: soluble ovalbumin protein (protein, UniProt P01012 2-386, looked up)
Ovalbumin: GSIGAASMEFCFDVFKELKVHHANENIFYCPIAIMSALAMVYLGAKDSTRTQINKVVRFDKLPGFGDSIEAQCGTSVNVHSSLRDILNQITKPNDVYSFSLASRLYAEERYPILPEYLQCVKELYRGGLEPINFQTAADQARELINSWVESQTNGIIRNVLQPSSVDSQTAMVLVNAIVFKGLWEKAFKDEDTQAMPFRVTEQESKPVQMMYQIGLFRVASMASEKMKILELPFASGTMSMLVLLPDEVSGLEQLESIINFEKLTEWTSSNVMEERKIKVYLPRMKMEEKYNLTSVLMAMGITDVFSSSANLSGISSAESLKISQAVHAAHAEINEAGREVVGSAEAGVDAASVSEEFRADHPFLFCIKHIATNAVLFFGRCVSP
With B1 the “CTL Assay- 3H-thymidine uptake (proliferation assay-cpm)” value ([2]; dendritic cells treated with 10 mg/ml) was 160,000 cpm.
